Data: BindingDB's records for doi:10.1021/jm800739m (University of Southern California, 2009)

Target: DNA-(apurinic or apyrimidinic site) endonuclease (Homo sapiens, UniProt P27695)
Test: APE1 Inhibition Assay
Settings: pH 7.5; 30 °C
Method: To determine the extent of abasic residue cleavage by APE1, recombinant APE1 was preincubated with the potential inhibitors in reaction buffer. Then, the 5-end 32P-labeled oligonucleotide substrate was added. The conversion of incision product was quantitated using PhosphorImager / ImageQuant 5.2 system. The IC50 values were determined by plotting the logarithm of drug concentration against percent inhibition of enzymatic activity. The optimum concentration of APE1 protein in the assay is the concentration at which there is complete conversion of the abasic-site containing oligonucleotide substrate to its cleaved product without subsequent exonuclease activity.

DNA-(apurinic or apyrimidinic site) endonuclease, sequence (P27695 whole entry): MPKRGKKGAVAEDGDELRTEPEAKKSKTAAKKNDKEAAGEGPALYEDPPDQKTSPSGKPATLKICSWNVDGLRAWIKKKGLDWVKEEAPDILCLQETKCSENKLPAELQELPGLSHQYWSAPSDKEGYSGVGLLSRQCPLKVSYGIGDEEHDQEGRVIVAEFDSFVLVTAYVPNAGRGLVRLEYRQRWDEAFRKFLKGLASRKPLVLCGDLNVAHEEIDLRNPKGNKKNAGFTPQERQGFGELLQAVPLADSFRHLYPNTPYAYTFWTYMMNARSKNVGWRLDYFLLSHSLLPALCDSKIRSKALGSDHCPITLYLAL

With O=C(O)c1ccc(Sc2ccc(S(=O)(=O)c3ccc(C(=O)O)c(C(=O)O)c3)cc2)cc1 [4-({4-[(4-carboxyphenyl)sulfanyl]benzene}sulfonyl)benzene-1,2-dicarboxylic acid] as the compound, how does the IC50 read?
Its IC50 is 4 µM.
